Assay results taken from US20180280340A1, “METHOD OF TREATING AND PREVENTING INFECTIONS” (priority 2017, published 2018).

Assays:
G. vaginalis biofilm = test: biofilm production inhibition, colorimetric biofilm staining; type: cell-based, Gardnerella vaginalis
Procedure: As a second step, the concentrations, which inhibited biofilm production, were determined. Several concentrations of BPO were tested: 0, 31.25, 62.5, 125, and 250 μg/mL. A colorimetric method was used for biofilm staining and to determine the biofilm integrity percent after the treatment. Note that in this test, the prototype of the vaginal gel was not used, but a DMSO solution of PBO (solution required for 96-well microplate) was used. Consequently, the inhibitory concentration for G. vaginalis found in this test cannot be compared with the inhibitory concentrations for BPO-gel as found in the previous experiments (Xu et al., 2013).

G. vaginalis [1] = test: broth microdilution assay to determine MIC and sub-MICs of BPO; type: cell-based; settings: Gardnerella vaginalis, DMSO solution of BPO, read-out: concentration required to completely inhibit the growth of G. vaginalis (MIC)
Description: Experimental Details: At a first step of the experiment, a broth microdilution assay was used to determine MIC and sub-MICs of BPO against G. vaginalis, a leading microorganism responsible for Bacterial Vaginosis. […] Note that in this test, the prototype of the vaginal gel was not used, but a DMSO solution of PBO (solution required for 96-well microplate) was used. Consequently, the inhibitory concentration for G. vaginalis found in this test cannot be compared with the inhibitory concentrations for BPO-gel as found in the previous experiments (Xu et al., 2013).

G. vaginalis [2] = test: bacterial cells viability under sub-MIC BPO treatment; type: cell-based, Gardnerella vaginalis; settings: highest sub-MIC concentration of 250 μg/mL

MIC (G. vaginalis [1]): > 250 µg/mL
Structure (SMILES): O=C(OOC(=O)c1ccccc1)c1ccccc1 [BPO, Benzoyl peroxide]
biofilm prevention (G. vaginalis biofilm; 125 μg/mL BPO): more than 40%
inhibition at 250 µg/mL (G. vaginalis biofilm; Gardnerella vaginalis, 250 μg/mL BPO (sub-MIC), compared with the control, read-out: biofilm formation inhibited): ~80%
biofilm integrity (G. vaginalis biofilm; around 250 μg/mL BPO): 20%
bacterial cells viability (G. vaginalis [2]): not influenced
